The subject of test [1] is Lp(a) production in HepG2^K17 cells. As to the kind of experiment: LPA3 screen: inhibition of Lp(a) production in transfected HepG2 cells, Lp(a) in media by ELISA. The class given is cell-based. As to conditions: Homo sapiens, 8 hours, 0.3 to 50 μM compound, Lp(a) normalized for total protein, read-out: Lp A3 IC50. The method, boiled down: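 HepG2 cells stably expressing apo(a) 17-kringle construct, seeded overnight, then exposed to 0.3 to 50 μM compound for 8 h at 37 °C. Lp(a) secreted into media measured by ELISA and normalized to total cellular protein.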
For orientation: In an ELISA, binding on a coated surface is turned into a signal by an enzyme label.

Test [2] addresses apolipoprotein(a), [apo(a)], apolipoproteinB-100, [apoB-100], coupling reaction that generates Lp(a) (Homo sapiens, UniProt P04114+P08519). As to the kind of experiment: LPABC screen: lipoprotein(a) biochemical coupling assay, Lp(a) content by ELISA. As to conditions: recombinant apo(a) 17-kringle (293 cell media) + HepG2 conditioned media, 67 minutes, 37° C., 0.3 to 50 μM compound; read-out: Lp ABC IC50. The method, boiled down:
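Conditioned medium from 293 cells stably expressing 17-kringle apo(a), diluted 1:3 in PBS and prewarmed 10 min at 37 °C, mixed with compound (added as 0.3–50 μM PBS solution) then 1:3-diluted HepG2 conditioned medium as apoB-100 source. Incubated 67 min at 37 °C; Lp(a) formed quantified by ELISA.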

Here are results for 12 molecules from patent US6780883B2, “Amide inhibitors of microsomal triglyceride transfer protein” (Warner-Lambert Company, priority 1998, dated 2004).

A value given as a limit tells only on which side of the number the result lay.

One may read the IC50 as the concentration at which inhibition is half-maximal.

For the molecule `COc1cccc(N(Cc2ccccc2-c2ccccc2)C(=O)c2ccccc2SCc2ccccc2)c1` [Example 131, 2-Benzylsulfanyl-N-biphenyl-2-ylmethyl-N-(3-methoxy-phenyl)-benzamide], the results for the IC50 in test [1] and in test [2] were 40.1 µM and more than 50 µM, respectively.
The like results for `O=C(c1ccccc1SCc1ccccc1)N(Cc1ccccc1-c1ccccc1)c1ccc(Cl)cc1` [Example 132, 2-Benzylsulfanyl-N-biphenyl-2-ylmethyl-N-(4-chloro-phenyl)-benzamide] were, in that order, more than 74 µM and more than 50 µM.
For `CCCSc1ccccc1C(=O)N(Cc1ccccc1-c1ccccc1)c1ccc(OC)c(OC)c1` [Example 133, N-Biphenyl-2-ylmethyl-N-(3,4-dimethoxy-phenyl)-2-propylsulfanyl-benzamide], the IC50 is 16.7 µM in test [1] and more than 50 µM in test [2].
For the molecule `COc1ccc(N(Cc2ccccc2-c2ccccc2)C(=O)c2ccccc2SC)cc1OC` [Example 134, N-Biphenyl-2-ylmethyl-N-(3,4-dimethoxy-phenyl)-2-methylsulfanyl-benzamide], the 50% inhibitory concentration (IC50) in test [1] is 12.9 µM; in test [2], more than 50 µM.
The like results for `COc1ccc(N(Cc2ccccc2-c2ccccc2)C(=O)c2ccccc2SC(C)C)cc1OC` [Example 135, N-Biphenyl-2-ylmethyl-N-(3,4-dimethoxy-phenyl)-2-isopropylsulfanyl-benzamide] were, in that order, 21.9 µM and more than 50 µM.
The like results for `COc1ccc(N(Cc2ccccc2-c2ccccc2)C(=O)c2cccc(Sc3ccccc3)c2)cc1OC` [Example 136, N-Biphenyl-2-ylmethyl-N-(3,4-dimethoxy-phenyl)-3-phenylsulfanyl-benzamide] were, in that order, 33.8 µM and more than 50 µM.
`COc1ccc(N(Cc2ccccc2-c2ccccc2)C(=O)c2ccccc2SCc2ccccc2)cc1OC` [Example 137, 2-Benzylsulfanyl-N-biphenyl-2-ylmethyl-N-(3,4-dimethoxy-phenyl)-benzamide]: the values for the half-maximal inhibitory concentration (IC50) in test [1] and in test [2] were 9.8 µM and more than 50 µM, respectively.
The like results for `CCC[S+]([O-])c1ccccc1C(=O)N(Cc1ccccc1-c1ccccc1)c1ccc(OC)cc1` (stereo not drawn) [Example 138, N-Biphenyl-2-ylmethyl-N-(4-methoxy-phenyl)-2-(propane-1-sulfinyl)-benzamide] were, in that order, 7 µM and more than 15 µM.
Regarding `COc1ccc(N(Cc2ccccc2-c2ccccc2)C(=O)c2ccccc2[S+]([O-])C(C)C)cc1` (stereo not drawn) [Example 139, N-Biphenyl-2-ylmethyl-N-(4-methoxy-phenyl)-2-(propane-2-sulfinyl)-benzamide], the IC50 in test [1] was 3.5 µM; in test [2] it was more than 15 µM.
Consider `O=C(c1ccccc1[S+]([O-])c1ccccc1)N(Cc1ccccc1-c1ccccc1)c1ccc(Cl)cc1` (stereo not drawn) [Example 140, 2-Benzenesulfinyl-N-biphenyl-2-ylmethyl-N-(4-chloro-phenyl)-benzamide], for which the half-inhibitory concentration (IC50) in test [1] was 24.9 µM; in test [2] it was more than 15 µM.
The like results for `CCC[S+]([O-])c1ccccc1C(=O)N(Cc1ccccc1-c1ccccc1)c1ccc(OC)c(OC)c1` (stereo not drawn) [Example 141, N-Biphenyl-2-ylmethyl-N-(3,4-dimethoxy-phenyl)-2-(propane-1-sulfinyl)-benzamide] were, in that order, 6 µM and more than 50 µM.
The like results for `COc1ccc(N(Cc2ccccc2-c2ccccc2)C(=O)c2ccccc2[S+]([O-])C(C)C)cc1OC` (stereo not drawn) [Example 142, N-Biphenyl-2-ylmethyl-N-(3,4-dimethoxy-phenyl)-2-(propane-2-sulfinyl)-benzamide] were, in that order, 7 µM and more than 50 µM.
